In ChEMBL document CHEMBL2029230, “Identification, design and biological evaluation of heterocyclic quinolones targeting Plasmodium falciparum type II NADH:quinone oxidoreductase (PfNDH2)” (J Med Chem, 2012):
Blank lines part the entries; values can stand above or below the compound they belong to.

Key:
Plasmodium falciparum [1] = assay: Antimalarial activity against blood stage forms of Plasmodium falciparum 3D7 infected in human erythrocytes; format: functional, organism-based
[2] = Inhibition of Plasmodium falciparum cytochrome b-c1 complex using decylubiquinol as substrate by spectrophotometry
[3] = Inhibition of Plasmodium falciparum recombinant NDH2 expressed in Escherichia coli F571 using decyclubiquinone as substrate at 1 min by spectrophotometry
Plasmodium falciparum [4] = assay: Antimalarial activity against chloroquine-resistant Plasmodium falciparum W2; format: functional, organism-based
Plasmodium falciparum [5] = assay: Antimalarial activity against […]-resistant Plasmodium falciparum TM90C2B containing cytochrome-b Y268S mutant; format: functional, organism-based
Plasmodium berghei [6] = assay: Antimalarial activity against Plasmodium berghei NS infected in CD1 mouse assessed as decrease in parasitemia at 20 mg/kg, po administered using DET as vehicle measured on day 4; format: functional; design: scale not given: the % may be the effect or the level left
Plasmodium berghei [7] = assay: Antimalarial activity against Plasmodium berghei NS infected in po dosed CD1 mouse assessed as decrease in parasitemia measured on day 4; format: functional; conditions: 96 h
Plasmodium berghei [8] = assay: Antimalarial activity against Plasmodium berghei NS infected in CD1 mouse assessed as decrease in parasitemia at 20 mg/kg, po administered using SSV as vehicle measured on day 4; format: functional; design: scale not given: the % may be the effect or the level left
Plasmodium berghei [9] = assay: Antimalarial activity against Plasmodium berghei NS infected in CD1 mouse assessed as decrease in parasitemia at 20 mg/kg, po administered using Na2CO3 as vehicle measured on day 4; format: functional; design: scale not given: the % may be the effect or the level left

Structure (SMILES): Cc1c(-c2ccc(OCCN3CCOCC3)cc2)[nH]c2ccccc2c1=O
- IC50 (Plasmodium falciparum [1]): > 1000 nM

Structure (SMILES): Cc1c(-c2ccc(-c3ccc(OC(F)(F)F)cc3)nc2)[nH]c2cc(F)ccc2c1=O
- IC50 [2]: 26.8 nM
- IC50 [3]: 4.2 nM
- IC50 (Plasmodium falciparum [1]): 75 nM
- IC50 (Plasmodium falciparum [4]): 70 nM

Structure (SMILES): Cc1c(-c2ccc(-c3ccc(OC(F)(F)F)cc3)nc2)[nH]c2ccc(Cl)cc2c1=O
- IC50 (Plasmodium falciparum [1]): 298 nM
- IC50 (Plasmodium falciparum [5]): 410 nM

Structure (SMILES): Cc1c(-c2ccc(-c3ccc(OCCN4CCOCC4)cc3)nc2)[nH]c2ccccc2c1=O
- IC50 (Plasmodium falciparum [1]): > 1000 nM

Structure (SMILES): Cc1c(-c2ccc(CN3CCN(Cc4ccc(OC(F)(F)F)cc4)CC3)nc2)[nH]c2ccccc2c1=O
- IC50 (Plasmodium falciparum [1]): 679 nM

Structure (SMILES): Cc1c(-c2ccc(-c3ccccc3F)nc2)[nH]c2ccccc2c1=O
- IC50 [3]: 131 nM
- IC50 (Plasmodium falciparum [1]): 151 nM
- IC50 (Plasmodium falciparum [4]): 120 nM
- IC50 (Plasmodium falciparum [5]): 324 nM

Structure (SMILES): O=C1C(O)=C([C@H]2CC[C@H](c3ccc(Cl)cc3)CC2)C(=O)c2ccccc21 [ATOVAQUONE]
- Activity (Plasmodium berghei [6]): 100%
- ED50 (Plasmodium berghei [7]): 0.07 mg/kg
- ED90 (Plasmodium berghei [7]): 0.11 mg/kg
- Activity (Plasmodium berghei [8]): 100%
- IC50 (Plasmodium falciparum [5]): 12000 nM

Structure (SMILES): Cc1c(-c2ccc(-c3ccc(O)cc3)nc2)[nH]c2ccccc2c1=O
- IC50 (Plasmodium falciparum [1]): > 1000 nM

Structure (SMILES): Cc1c(-c2ccc(-c3ccc(OC(F)(F)F)cc3)nc2)[nH]c2ccc(OC(F)(F)F)cc2c1=O
- IC50 (Plasmodium falciparum [1]): > 1000 nM

Structure (SMILES): COc1cccc2c(=O)c(C)c(-c3ccc(-c4ccc(OC(F)(F)F)cc4)nc3)[nH]c12
- IC50 (Plasmodium falciparum [1]): > 1000 nM

Structure (SMILES): Cc1c(-c2ccc(-c3ccc(OC(F)(F)F)cc3)nc2)[nH]c2cc(C(F)(F)F)ccc2c1=O
- IC50 (Plasmodium falciparum [1]): > 1000 nM

Structure (SMILES): Cc1c(-c2ccc(-c3cnn(CCN4CCCCC4)c3)cc2)[nH]c2ccccc2c1=O
- IC50 (Plasmodium falciparum [1]): > 1000 nM

Structure (SMILES): Cc1c(-c2ccc(-c3cnn(CCN4CCOCC4)c3)cc2)[nH]c2ccccc2c1=O
- IC50 (Plasmodium falciparum [1]): > 1000 nM

Structure (SMILES): Cc1c(-c2ccc(-c3cccc(OCCN4CCOCC4)c3)nc2)[nH]c2ccccc2c1=O
- IC50 (Plasmodium falciparum [1]): > 1000 nM

Structure (SMILES): Cc1c(-c2ccc(Cc3ccc(C(F)(F)F)nc3)cc2F)[nH]c2ccccc2c1=O
- IC50 (Plasmodium falciparum [1]): 136 nM
- IC50 (Plasmodium falciparum [4]): 67 nM

Structure (SMILES): O=c1c(CO)c(-c2ccc(-c3ccc(OC(F)(F)F)cc3)cc2)[nH]c2ccccc12
- IC50 [3]: 69 nM
- IC50 (Plasmodium falciparum [1]): 162 nM
- IC50 (Plasmodium falciparum [5]): 361 nM

Structure (SMILES): CCOC(=O)c1c(-c2ccc(-c3ccc(OC(F)(F)F)cc3)nc2)[nH]c2ccccc2c1=O
- IC50 (Plasmodium falciparum [1]): 987 nM

Structure (SMILES): COc1ccc2[nH]c(-c3ccc(-c4ccc(OC(F)(F)F)cc4)nc3)c(C)c(=O)c2c1
- IC50 (Plasmodium falciparum [1]): > 1000 nM

Structure (SMILES): Cc1c(-c2ccc(-c3ccc(OC(F)(F)F)cc3)nc2)nc2ccccc2c1OP(=O)(O)O
- Activity (Plasmodium berghei [9]): 100%

Structure (SMILES): Cc1c(-c2ccc(CN3CCOCC3)cc2)[nH]c2ccccc2c1=O
- IC50 (Plasmodium falciparum [1]): 32 nM
- IC50 (Plasmodium falciparum [4]): 3070 nM

Structure (SMILES): Cc1c(-c2ccc(-c3ccc(OC(F)(F)F)cc3)nc2)[nH]c2cc(S(C)(=O)=O)ccc2c1=O
- IC50 (Plasmodium falciparum [1]): > 1000 nM

Structure (SMILES): Cc1c(-c2ccc(-c3ccc(OC(F)(F)F)cc3)nc2)[nH]c2ccccc2c1=O.O=P(O)(O)O
- ED50 (Plasmodium berghei [7]): 1.87 mg/kg
- ED90 (Plasmodium berghei [7]): 4.72 mg/kg

Continued by falling IC50 (Plasmodium falciparum [1]), values first:

- IC50 (Plasmodium falciparum [1]): 600 nM
Structure (SMILES): Cc1c(-c2ccc(-c3ccc(OCCN4CCCCC4)cc3)nc2)[nH]c2ccccc2c1=O

- IC50 (Plasmodium falciparum [1]): 496 nM
Structure (SMILES): Cc1c(-c2ccc(-c3ccc(CN4CCOCC4)cc3)cc2)[nH]c2ccccc2c1=O

- IC50 (Plasmodium falciparum [1]): 471 nM
Structure (SMILES): Cc1c(-c2ccc(-c3ccccc3F)cc2)[nH]c2ccccc2c1=O

- IC50 (Plasmodium falciparum [1]): 390 nM
Structure (SMILES): Cc1c(-c2ccc(-c3ccc(OC(F)(F)F)cc3)nc2)[nH]c2cc(Cl)c(F)cc2c1=O

- IC50 (Plasmodium falciparum [1]): 373 nM
Structure (SMILES): Cc1c(-c2ccc(-c3ccc(OC(F)(F)F)cc3)nc2)[nH]c2cc(Cl)ccc2c1=O

- IC50 (Plasmodium falciparum [1]): 319 nM
Structure (SMILES): Cc1c(-c2ccc(OC3CCC(F)(F)CC3)cc2)[nH]c2ccccc2c1=O

- IC50 (Plasmodium falciparum [1]): 280 nM
Structure (SMILES): Cc1c(-c2ccc(-c3ccc(OC(F)(F)F)cc3)nc2)[nH]c2ccc(O)cc2c1=O

- IC50 [3]: 88.6 nM
- IC50 (Plasmodium falciparum [1]): 219 nM
Structure (SMILES): Cc1c(-c2ccc(-c3ccc(F)cc3F)nc2)[nH]c2ccccc2c1=O

- IC50 (Plasmodium falciparum [1]): 213 nM
Structure (SMILES): Cc1c(-c2ccc(-c3ccc(F)cc3F)cc2)[nH]c2ccccc2c1=O

- IC50 (Plasmodium falciparum [1]): 202 nM
Structure (SMILES): Cc1c(-c2ccc(-c3ccc(OC(F)(F)F)cc3)nc2)[nH]c2cc(O)ccc2c1=O

- IC50 [3]: 8.1 nM
- IC50 (Plasmodium falciparum [1]): 96 nM
Structure (SMILES): Cc1c(-c2ccc(-c3ccccc3C(F)(F)F)cc2)[nH]c2ccccc2c1=O
